Reference: patent US20230241245A1, “Therapeutic Carbon Nanomaterial H2S Oxidants for Biological Polysulfide Synthesis” (The Texas A&M University System, priority 2020, published 2023)

Tested on: bEnd.3 cells
Experiment: SSP4 fluorescence photomicrographs of bEnd.3 cells with or without AP39 and PEG-OAC
Format: cell-based
Conditions: PEG-OACs 4 mg/L

In the case of `O=C(CCCCCCCCC[P+](c1ccccc1)(c1ccccc1)c1ccccc1)Oc1ccc(-c2cc(=S)ss2)cc1.[Br-]` [AP39], the “SSP4 fluorescence, agent alone relative to control” value is reported as “increases the fluorescence signal”.
